28 substances from patent US10517889B2, “Modulators of SMAD7 expression” (Ionis Pharmaceuticals, Inc., priority 2017, dated 2019) can be followed below.

In this series the test system is human SMAD7 mRNA. Nature of the series: Antisense inhibition of human SMAD7 mRNA expression in Hep3B cells by 5-10-5 MOE gapmers, single concentration, electroporation, RT-PCR (Example 1, Study 1 and 2). The class given is cell-based. To be noted: for % Inhibition: Study 2, electroporation with 15,000 nM antisense oligonucleotide; for % Inhibition of SMAD7 mRNA: electroporation with 15,000 nM antisense oligonucleotide (Study 2). The method, then:
Antisense oligonucleotides were designed to target human SMAD7 mRNA and were tested for their effects on SMAD7 mRNA expression in vitro. Cultured Hep3B cells at a density of 20,000 cells per well were transfected using electroporation with antisense oligonucleotide ION 483663 (a 5-10-5 MOE gapmer), the sequence of which overlaps with ION 28453 (a 4-10-4 MOE gapmer) was included in these assays for comparison. ION 28453 has been previously disclosed in U.S. Pat. No. 6,159,697). After a treatment period of approximately 24 hours, RNA was isolated from the cells and SMAD7 mRNA levels were measured by quantitative real-time PCR. Primer probe set RTS5062 (forward sequence […], designated herein as SEQ ID NO: 11; reverse sequence […], designated herein as SEQ ID NO: 12; probe sequence […], designated herein as SEQ ID NO: 13) was used to measure human SMAD7 mRNA levels. SMAD7 mRNA levels were adjusted according to total RNA content, as measured by RIBOGREEN®. Results are presented as percent inhibition of SMAD7 mRNA expression, relative to untreated control cells.
The newly designed chimeric antisense oligonucleotides in the Tables below were designed as 5-10-5 MOE gapmers. The gapmers are 20 nucleosides in length, wherein the central gap segment comprises of ten 2′-deoxynucleosides and is flanked by wing segments on the 5′ direction and the 3′ direction comprising five nucleosides each. Each nucleoside in the 5′ wing segment and each nucleoside in the 3′ wing segment has a 2′-MOE modification. The internucleoside linkages throughout each gapmer are phosphorothioate (P═S) linkages. All cytosine residues throughout each gapmer are 5-methylcytosines.
“Start site” indicates the 5′-most nucleoside to which the gapmer is targeted in the human gene sequence. “Stop site” indicates the 3′-most nucleoside to which the gapmer is targeted human gene sequence.
Cultured Hep3B cells at a density of 20,000 cells per well were transfected using electroporation with 5,000 nM antisense oligonucleotide.
Cultured Hep3B cells at a density of 20,000 cells per well were transfected using electroporation with 15,000 nM antisense oligonucleotide. The antisense oligonucleotides were tested in a series of experiments that had similar culture conditions as described below.
Some of the oligonucleotides presented were complementary to SMAD7 mRNA sequences RefSeqNo. NM_001190821.1 (designated herein as SEQ ID NO: 3) or RefSeqNo. NM_001190822.1 (designated herein as SEQ ID NO: 4), and are presented in a separate table shown below.

The mark [1] stands for this setting: 5-10-5 MOE gapmers targeting SEQ ID NO: 1 and 2.
Where [2] appears, read: electroporation, 15,000 nM antisense oligonucleotide (Study 2), 5-10-5 MOE gapmers targeting SEQ ID NO: 1 and 2.
[3] abbreviates: electroporation, 15,000 nM, approximately 24 hours, relative to untreated control cells, gapmers targeting SEQ ID NO: 1 and 2.
Setting [4] is: electroporation, 5,000 nM, approximately 24 hours, relative to untreated control cells, gapmers targeting SEQ ID NO: 1 and 2.

Strand notation (5' to 3'): a small letter for the sugar, then the base; units joined by * are phosphorothioate-linked, units joined directly phosphodiester-linked; [ ] holds rarer units or linkages, { } end groups; capitals alone tell only the bases. e = 2'-O-(2-methoxyethyl) (MOE); [5mC] = 5-methylcytosine; d = 2'-deoxy (DNA)

The term % Inhibition denotes the drop in the measured response relative to a control, in per cent. Turning to “771402 (antisense e[5mC]*eA*eG*eG*e[5mC]*dG*d[5mC]*dA*dG*dG*d[5mC]*dG*dA*d[5mC]*dA*eG*e[5mC]*eA*eG*e[5mC]) [compound 771402]”, the “% Inhibition” value under setting [1] was determined as 31%. “771404 (antisense e[5mC]*eG*eA*eA*e[5mC]*dA*dT*dG*dA*d[5mC]*d[5mC]*dT*d[5mC]*d[5mC]*dG*e[5mC]*eA*e[5mC]*eA*e[5mC]) [compound 771404]”: the “% inhibition of SMAD7 mRNA expression” value under setting [2] is reported as 51%. As to “771405 (antisense eA*eG*e[5mC]*eG*eA*dA*d[5mC]*dA*dT*dG*dA*d[5mC]*d[5mC]*dT*d[5mC]*e[5mC]*eG*e[5mC]*eA*e[5mC]) [compound 771405]”, the “% Inhibition” value under setting [1] is given as 25%. For the substance “771406 (antisense eG*eA*eG*e[5mC]*eG*dA*dA*d[5mC]*dA*dT*dG*dA*d[5mC]*d[5mC]*dT*e[5mC]*e[5mC]*eG*e[5mC]*eA) [compound 771406]”, under setting [3], the “% inhibition of SMAD7 mRNA expression” value stood at 55%. With “771408 (antisense eT*eG*e[5mC]*eT*eA*dA*dG*dG*dA*dG*d[5mC]*dG*dA*dA*d[5mC]*eA*eT*eG*eA*e[5mC]) [compound 771408]”, the “% Inhibition” value under setting [1] is given as 36%. Consider “771409 (antisense e[5mC]*e[5mC]*e[5mC]*e[5mC]*eT*dG*d[5mC]*dG*d[5mC]*d[5mC]*d[5mC]*dT*d[5mC]*d[5mC]*dT*e[5mC]*e[5mC]*eT*e[5mC]*eG) [compound 771409]”, for which, under setting [1], the “% Inhibition of SMAD7 mRNA” value turned out to be 33%. The “% inhibition of SMAD7 mRNA expression” value under setting [2] is reported as 19%. As to “771410 (eG*e[5mC]*eT*e[5mC]*eG*d[5mC]*d[5mC]*dT*d[5mC]*d[5mC]*dT*d[5mC]*d[5mC]*dT*d[5mC]*e[5mC]*eA*e[5mC]*e[5mC]*eT; antisense) [compound 771410]”, the “% inhibition of SMAD7 mRNA expression” value under setting [2] worked out at 37%. On the same count and under the same terms, as for “771411 (e[5mC]*e[5mC]*eT*eT*e[5mC]*dT*d[5mC]*d[5mC]*d[5mC]*d[5mC]*dG*d[5mC]*dA*dG*d[5mC]*eT*e[5mC]*eG*e[5mC]*e[5mC]; antisense) [compound 771411]”, the figure is 33%.

With “771412 (eT*e[5mC]*eG*e[5mC]*e[5mC]*d[5mC]*d[5mC]*dT*dT*d[5mC]*dT*d[5mC]*d[5mC]*d[5mC]*d[5mC]*eG*e[5mC]*eA*eG*e[5mC]; antisense) [compound 771412]”, the “% Inhibition” value under setting [1] came to 38%. The “% inhibition of SMAD7 mRNA expression” value under setting [4] came to 52%. In the case of “771413 (eT*eG*eT*e[5mC]*e[5mC]*dG*dT*d[5mC]*dG*d[5mC]*d[5mC]*d[5mC]*d[5mC]*dT*dT*e[5mC]*eT*e[5mC]*e[5mC]*e[5mC]; antisense) [compound 771413]”, the “% Inhibition” value under setting [1] was 24%. On the same count and under the same terms, the figure for “771415 (eT*eG*e[5mC]*eG*e[5mC]*dT*d[5mC]*dG*dG*d[5mC]*dT*dG*dT*d[5mC]*d[5mC]*eG*eT*e[5mC]*eG*e[5mC]; antisense) [compound 771415]” is 36%.

As to “771417 (eA*e[5mC]*e[5mC]*eG*eG*d[5mC]*d[5mC]*d[5mC]*d[5mC]*dA*dT*dG*d[5mC]*dG*d[5mC]*eT*e[5mC]*eG*eG*e[5mC]; antisense) [compound 771417]”, the “% Inhibition of SMAD7 mRNA” value under setting [1] came out at 24%. Also, the “% inhibition of SMAD7 mRNA expression” value under setting [2] worked out at 16%. As for “771419 (eG*eG*e[5mC]*e[5mC]*eG*d[5mC]*d[5mC]*dG*d[5mC]*d[5mC]*dA*d[5mC]*d[5mC]*dG*dG*e[5mC]*e[5mC]*e[5mC]*e[5mC]*eA; antisense) [compound 771419]”, the “% inhibition of SMAD7 mRNA expression” value under setting [2] is 37%. Turning to “771420 (eG*e[5mC]*e[5mC]*e[5mC]*eG*dG*dG*d[5mC]*d[5mC]*dG*d[5mC]*d[5mC]*dG*d[5mC]*d[5mC]*eA*e[5mC]*e[5mC]*eG*eG; antisense) [compound 771420]”, the “% Inhibition” value under setting [1] is 54%. Under setting [4], the “% inhibition of SMAD7 mRNA expression” value turned out to be 1%. For the substance “771421 (eG*e[5mC]*e[5mC]*e[5mC]*eT*dG*d[5mC]*d[5mC]*d[5mC]*dG*dG*dG*d[5mC]*d[5mC]*dG*e[5mC]*e[5mC]*eG*e[5mC]*e[5mC]; antisense) [compound 771421]”, the “% Inhibition” value under setting [1] turned out to be 0%.

On to “771422 (eA*eT*e[5mC]*e[5mC]*eA*dG*d[5mC]*d[5mC]*d[5mC]*dT*dG*d[5mC]*d[5mC]*d[5mC]*dG*eG*eG*e[5mC]*e[5mC]*eG; antisense) [compound 771422]”, for which the “% inhibition of SMAD7 mRNA expression” value under setting [3] is 27%.

With “771423 (eG*e[5mC]*eA*eG*e[5mC]*dA*dT*d[5mC]*d[5mC]*dA*dG*d[5mC]*d[5mC]*d[5mC]*dT*eG*e[5mC]*e[5mC]*e[5mC]*eG; antisense) [compound 771423]”, the “% Inhibition” value under setting [1] was found to be 39%.

For “771424 (e[5mC]*e[5mC]*e[5mC]*eA*eG*dG*d[5mC]*dA*dG*d[5mC]*dA*dT*d[5mC]*d[5mC]*dA*eG*e[5mC]*e[5mC]*e[5mC]*eT; antisense) [compound 771424]”, the “% Inhibition” value under setting [1] was found to be 36%. For “771425 (e[5mC]*e[5mC]*eT*eT*eG*d[5mC]*d[5mC]*d[5mC]*dA*dG*dG*d[5mC]*dA*dG*d[5mC]*eA*eT*e[5mC]*e[5mC]*eA; antisense) [compound 771425]”, the “% Inhibition of SMAD7 mRNA” value under setting [1] turned out to be 15%. Under setting [2], the “% inhibition of SMAD7 mRNA expression” value stood at 1%. Consider “771426 (e[5mC]*eA*e[5mC]*e[5mC]*eG*d[5mC]*d[5mC]*dT*dT*dG*d[5mC]*d[5mC]*d[5mC]*dA*dG*eG*e[5mC]*eA*eG*e[5mC]; antisense) [compound 771426]”, for which the “% inhibition of SMAD7 mRNA expression” value under setting [2] amounted to 28%.

As to “771427 (e[5mC]*e[5mC]*eT*e[5mC]*eG*d[5mC]*dA*d[5mC]*d[5mC]*dG*d[5mC]*d[5mC]*dT*dT*dG*e[5mC]*e[5mC]*e[5mC]*eA*eG; antisense) [compound 771427]”, the “% inhibition of SMAD7 mRNA expression” value under setting [2] was determined as 36%. For “771428 (eT*eG*eG*e[5mC]*eA*d[5mC]*d[5mC]*dT*d[5mC]*dG*d[5mC]*dA*d[5mC]*d[5mC]*dG*e[5mC]*e[5mC]*eT*eT*eG; antisense) [compound 771428]”, the “% Inhibition” value under setting [1] is 47%. Also, the “% inhibition of SMAD7 mRNA expression” value under setting [4] stood at 0%. With “771429 (eA*e[5mC]*e[5mC]*eT*eT*dT*dG*dG*d[5mC]*dA*d[5mC]*d[5mC]*dT*d[5mC]*dG*e[5mC]*eA*e[5mC]*e[5mC]*eG; antisense) [compound 771429]”, under setting [1], the “% Inhibition” value is 11%.

On to “771430 (e[5mC]*eG*e[5mC]*e[5mC]*e[5mC]*dG*d[5mC]*dG*dG*d[5mC]*dT*dG*dG*d[5mC]*dG*eG*eG*eT*eG*eG; antisense) [compound 771430]”, for which, under setting [3], the “% inhibition of SMAD7 mRNA expression” value is recorded as 40%. Consider “771431 (eG*e[5mC]*e[5mC]*e[5mC]*e[5mC]*d[5mC]*dG*dG*d[5mC]*d[5mC]*dG*d[5mC]*dG*d[5mC]*d[5mC]*eG*eG*e[5mC]*eG*e[5mC]; antisense) [compound 771431]”, for which the “% Inhibition” value under setting [1] amounted to 37%. The same measure, in the same setting: the figure for “771432 (e[5mC]*eA*eG*eT*eT*dT*d[5mC]*dT*dT*dG*dA*dG*d[5mC]*dA*d[5mC]*e[5mC]*eG*eA*eG*eT; antisense) [compound 771432]” is 28%. In the case of “771433 (eT*e[5mC]*e[5mC]*eT*eT*d[5mC]*dA*dG*dT*dT*dT*d[5mC]*dT*dT*dG*eA*eG*e[5mC]*eA*e[5mC]; antisense) [compound 771433]”, the “% Inhibition of SMAD7 mRNA” value under setting [1] was 28%. Also, the “% inhibition of SMAD7 mRNA expression” value under setting [2] is reported as 0%.

Regarding “771434 (eG*e[5mC]*e[5mC]*eG*e[5mC]*dT*d[5mC]*d[5mC]*dT*dT*d[5mC]*dA*dG*dT*dT*eT*e[5mC]*eT*eT*eG; antisense) [compound 771434]”, under setting [2], the “% inhibition of SMAD7 mRNA expression” value came to 27%.
